This is an account of results in patent US11020398B2, “Amino-pyrrolopyrimidinone compounds and methods of use thereof” (ArQule, Inc., priority 2016, dated 2021).

The target in the test is phosphorylated form of full length BTK (active BTK) (Homo sapiens (Human), UniProt Q06187). Description: Mobility shift assay (MSA, Caliper LabChip), active BTK assay. It is filed as biochemical. Particulars: Assay type B (MSA using active BTK). As for the experimental part:
The active BTK assay consists of phosphorylated form of full length BTK. […] The enzyme inhibitor complexes is incubated, before the kinase activation reaction is initiated.
Mobility Shift Assay (MSA)
The active BTK assay consisted of phosphorylated form of full length BTK. […] The enzyme inhibitor complexes was incubated for 30 minutes at the room temperature and the kinase activation reaction was initiated by the addition of 1 μM Srctide peptide substrate and […].

Sequence of phosphorylated form of full length BTK (active BTK) (Q06187 whole entry): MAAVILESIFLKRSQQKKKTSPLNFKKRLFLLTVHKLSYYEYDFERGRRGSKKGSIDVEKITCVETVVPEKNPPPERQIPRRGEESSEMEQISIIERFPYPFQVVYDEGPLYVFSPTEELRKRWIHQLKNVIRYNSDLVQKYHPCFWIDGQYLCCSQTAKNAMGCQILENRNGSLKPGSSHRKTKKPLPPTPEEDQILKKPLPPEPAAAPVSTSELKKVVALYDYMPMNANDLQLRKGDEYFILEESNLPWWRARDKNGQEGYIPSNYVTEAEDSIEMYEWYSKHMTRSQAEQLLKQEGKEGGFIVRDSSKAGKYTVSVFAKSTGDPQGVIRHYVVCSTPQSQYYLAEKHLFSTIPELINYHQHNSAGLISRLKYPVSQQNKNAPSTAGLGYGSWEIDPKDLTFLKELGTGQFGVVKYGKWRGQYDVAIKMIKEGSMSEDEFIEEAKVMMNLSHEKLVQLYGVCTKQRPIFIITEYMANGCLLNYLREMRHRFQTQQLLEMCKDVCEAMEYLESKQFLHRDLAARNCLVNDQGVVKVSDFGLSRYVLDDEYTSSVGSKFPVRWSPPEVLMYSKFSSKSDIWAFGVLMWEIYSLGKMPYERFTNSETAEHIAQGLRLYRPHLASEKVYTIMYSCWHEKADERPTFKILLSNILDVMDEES

Regarding `CC1(N)CN([C@H]2CC[C@H](Nc3ncnc4[nH]cc(C(=O)c5ccccc5Cl)c34)CC2)C1` [Compound I-114, (4-((trans-4-(3-amino-3-methylazetidin-1-yl)cyclohexyl)amino)-7H-pyrrolo[2,3-d]pyrimidin-5-yl)(2-chlorophenyl)methanone], the half-maximal inhibitory concentration (IC50) was determined as 23 nM.

As for `N[C@H]1CC[C@@H](Nc2ncnc3[nH]cc(C(=O)c4cccc(Oc5ccccc5)c4)c23)CC1` [Compound I-131, (4-((cis-4-aminocyclohexyl)amino)-7H-pyrrolo[2,3-d]pyrimidin-5-yl)(3-phenoxyphenyl)methanone], the IC50 was found to be 3.8 nM.

In the case of `CN(C)CC(=O)N[C@H]1CC[C@@H](Nc2ncnc3[nH]cc(C(=O)c4ccc(Oc5ccccc5)cc4Cl)c23)CC1` [Compound I-181, N-(cis-4-((5-(2-chloro-4-phenoxybenzoyl)-7H-pyrrolo[2,3-d]pyrimidin-4-yl)amino)cyclohexyl)-2-(dimethylamino)acetamide], the IC50 worked out at 0.98 nM.

On to `N[C@H]1C[C@H](Nc2ncnc3[nH]cc(C(=O)c4ccc(Oc5ccccc5)cc4)c23)C1` [Compound I-191, (4-((trans-3-aminocyclobutyl)amino)-7H-pyrrolo[2,3-d]pyrimidin-5-yl)(4-phenoxyphenyl)methanone], for which the IC50 is 37 nM.

Take `C[C@H](O)C(=O)N[C@@H](C)[C@@H]1CC[C@@H](Nc2ncnc3[nH]cc(C(=O)c4ccc(Oc5ccccc5)cc4Cl)c23)CO1` [Compound I-208, (S)—N—((S)-1-((2S,5R)-5-((5-(2-chloro-4-phenoxybenzoyl)-7H-pyrrolo[2,3-d]pyrimidin-4-yl)amino)tetrahydro-2H-pyran-2-yl)ethyl)-2-hydroxypropanamide]: the IC50 came to 3.1 nM.

For `CC(O)CCCCCC(=O)N[C@H]1CC[C@@H](Nc2ncnc3[nH]cc(C(=O)c4ccc(Oc5ccccc5)cc4Cl)c23)CC1` (mixture of isomers) [Compound I-214, rac-N-(cis-4-((5-(2-chloro-4-phenoxybenzoyl)-7H-pyrrolo[2,3-d]pyrimidin-4-yl)amino)cyclohexyl)-7-hydroxyoctanamide], the IC50 came out at 7.4 nM.

As for `CC(C)(O)[C@@H]1CC[C@@H](Nc2ncnc3[nH]cc(C(=O)c4ccc(Oc5ccccc5)cc4Cl)c23)CO1` [Compound I-188, (2-chloro-4-phenoxyphenyl)(4-(((3R,6S)-6-(2-hydroxypropan-2-yl)tetrahydro-2H-pyran-3-yl)amino)-7H-pyrrolo[2,3-d]pyrimidin-5-yl)methanone], the IC50 turned out to be 1.7 nM.

On to `N[C@H]1CC[C@@H](Nc2ncnc3[nH]cc(C(=O)c4ccc(Oc5ccccc5)cc4)c23)CC1` [Compound I-130, (4-((cis-4-aminocyclohexyl)amino)-7H-pyrrolo[2,3-d]pyrimidin-5-yl)(4-phenoxyphenyl)methanone], for which the IC50 was 3.2 nM.

Regarding `COC1CN([C@H]2CC[C@@H](Nc3ncnc4[nH]cc(C(=O)c5ccccc5Cl)c34)CC2)C1` [Compound I-109, (2-chlorophenyl)(4-((cis-4-(3-methoxyazetidin-1-yl)cyclohexyl)amino)-7H-pyrrolo[2,3-d]pyrimidin-5-yl)methanone], the IC50 stood at 3.2 nM.

With `C[C@]1(O)CC[C@@H](Nc2ncnc3[nH]cc(C(=O)c4ccc(Oc5ccccc5)cc4Cl)c23)CC1` [Compound I-200, (2-chloro-4-phenoxyphenyl)(4-((cis-4-hydroxy-4-methylcyclohexyl)amino)-7H-pyrrolo[2,3-d]pyrimidin-5-yl)methanone], the IC50 turned out to be 1.4 nM.

Consider `C[C@H](O)C(=O)NC[C@@H]1CC[C@@H](Nc2ncnc3[nH]cc(C(=O)c4ccc(Oc5ccccc5)cc4Cl)c23)CO1` [Compound I-210, (S)—N-(((2S,5R)-5-((5-(2-chloro-4-phenoxybenzoyl)-7H-pyrrolo[2,3-d]pyrimidin-4-yl)amino)tetrahydro-2H-pyran-2-yl)methyl)-2-hydroxypropanamide], for which the IC50 turned out to be 1.9 nM.

With `C[C@H](NC(=O)[C@@H](C)O)[C@@H]1CC[C@@H](Nc2ncnc3[nH]cc(C(=O)c4ccc(Oc5ccccc5)cc4)c23)CO1` [Compound I-215, (R)-2-hydroxy-N-((S)-1-((2S,5R)-5-((5-(4-phenoxybenzoyl)-7H-pyrrolo[2,3-d]pyrimidin-4-yl)amino)tetrahydro-2H-pyran-2-yl)ethyl)propanamide], the IC50 is 3.9 nM.

On to `C[C@H](O)C(=O)N[C@H]1CC[C@@H](Nc2ncnc3[nH]cc(C(=O)c4ccc(Oc5ccccc5)cc4Cl)c23)CC1` [Compound I-193, (S)—N-(cis-4-((5-(2-chloro-4-phenoxybenzoyl)-7H-pyrrolo[2,3-d]pyrimidin-4-yl)amino)cyclohexyl)-2-hydroxypropanamide], for which the IC50 is 1.2 nM.

With `C[C@@H](O)[C@@H]1CC[C@@H](Nc2ncnc3[nH]cc(C(=O)c4ccc(Oc5cccc(F)c5)cc4Cl)c23)CO1` [Compound I-182, (2-chloro-4-(3-fluorophenoxy)phenyl)(4-(((3R,6S)-6-((R)-1-hydroxyethyl)tetrahydro-2H-pyran-3-yl)amino)-7H-pyrrolo[2,3-d]pyrimidin-5-yl)methanone], the IC50 is 1.5 nM.

`O=C(c1ccc(Oc2ccccc2)cc1)c1c[nH]c2ncnc(N[C@H]3C[C@H](CO)C3)c12` [Compound I-187, (4-((trans-3-(hydroxymethyl)cyclobutyl)amino)-7H-pyrrolo[2,3-d]pyrimidin-5-yl)(4-phenoxyphenyl)methanone]: the IC50 is 4.2 nM.

In the case of `CC(C)(C)OC(=O)N[C@H]1C[C@H](Nc2ncnc3[nH]cc(C(=O)c4ccc(Oc5ccccc5)cc4)c23)C1` [Compound I-185, tert-butyl (trans-3-((5-(4-phenoxybenzoyl)-7H-pyrrolo[2,3-d]pyrimidin-4-yl)amino)cyclobutyl)carbamate], the IC50 was determined as 57 nM.

`O=C(c1ccc(Oc2ccccc2)cc1Cl)c1c[nH]c2ncnc(N[C@H]3CC[C@H](O)[C@H](O)C3)c12` (racemic) [Compound I-180, rac-(2-chloro-4-phenoxyphenyl)(4-(((1S,3R,4S)-3,4-dihydroxycyclohexyl)amino)-7H-pyrrolo[2,3-d]pyrimidin-5-yl)methanone]: the IC50 is 1.8 nM.

Take `C[C@@H](O)C(=O)NC[C@@H]1CC[C@@H](Nc2ncnc3[nH]cc(C(=O)c4ccc(Oc5ccccc5)cc4)c23)CO1` [Compound I-217, (R)-2-hydroxy-N-(((2S,5R)-5-((5-(4-phenoxybenzoyl)-7H-pyrrolo[2,3-d]pyrimidin-4-yl)amino)tetrahydro-2H-pyran-2-yl)methyl)propanamide]: the IC50 amounted to 3.2 nM.

For the molecule `CC(=O)N[C@@H](C)[C@@H]1CC[C@@H](Nc2ncnc3[nH]cc(C(=O)c4ccccc4Cl)c23)CO1` [Compound I-116, N—((S)-1-((2S,5R)-5-((5-(2-chlorobenzoyl)-7H-pyrrolo[2,3-d]pyrimidin-4-yl)amino)tetrahydro-2H-pyran-2-yl)ethyl)acetamide], the IC50 is 5.9 nM.

Turning to `C[C@@H](O)[C@@H]1CC[C@@H](Nc2ncnc3[nH]cc(C(=O)c4ccc(Oc5cccc(Cl)c5)cc4Cl)c23)CO1` [Compound I-183, (2-chloro-4-(3-chlorophenoxy)phenyl)(4-(((3R,6S)-6-((R)-1-hydroxyethyl)tetrahydro-2H-pyran-3-yl)amino)-7H-pyrrolo[2,3-d]pyrimidin-5-yl)methanone], the IC50 was found to be 2.2 nM.

Turning to `CC(=O)NC[C@@H]1CC[C@@H](Nc2ncnc3[nH]cc(C(=O)c4ccc(Oc5ccccc5)cc4)c23)CO1` [Compound I-205, N-(((2S,5R)-5-((5-(4-phenoxybenzoyl)-7H-pyrrolo[2,3-d]pyrimidin-4-yl)amino)tetrahydro-2H-pyran-2-yl)methyl)acetamide], the IC50 is 1.6 nM.

Consider `CC(C)(O)C(=O)N[C@H]1CC[C@@H](Nc2ncnc3[nH]cc(C(=O)c4ccc(Oc5ccccc5)cc4Cl)c23)CC1` [Compound I-194, N-(cis-4-((5-(2-chloro-4-phenoxybenzoyl)-7H-pyrrolo[2,3-d]pyrimidin-4-yl)amino)cyclohexyl)-2-hydroxy-2-methylpropanamide], for which the IC50 is 1.5 nM.

As to `CC1(O)CN([C@H]2CC[C@H](Nc3ncnc4[nH]cc(C(=O)c5ccccc5Cl)c34)CC2)C1` [Compound I-112, (2-chlorophenyl)(4-((trans-4-(3-hydroxy-3-methylazetidin-1-yl)cyclohexyl)amino)-7H-pyrrolo[2,3-d]pyrimidin-5-yl)methanone], the IC50 turned out to be 18 nM.

Turning to `CC(O)CCCCC(=O)N[C@H]1CC[C@@H](Nc2ncnc3[nH]cc(C(=O)c4ccc(Oc5ccccc5)cc4Cl)c23)CC1` (mixture of isomers) [Compound I-212, rac-N-(cis-4-((5-(2-chloro-4-phenoxybenzoyl)-7H-pyrrolo[2,3-d]pyrimidin-4-yl)amino)cyclohexyl)-6-hydroxyheptanamide], the IC50 is 2.9 nM.

For the molecule `COC[C@]1(O)CC[C@H](Nc2ncnc3[nH]cc(C(=O)c4ccccc4Cl)c23)CC1` [Compound I-107, (2-chlorophenyl)(4-((trans-4-hydroxy-4-(methoxymethyl)cyclohexyl)amino)-7H-pyrrolo[2,3-d]pyrimidin-5-yl)methanone], the IC50 amounted to 12 nM.

Take `CC1(O)CN([C@H]2CC[C@@H](Nc3ncnc4[nH]cc(C(=O)c5ccccc5Cl)c34)CC2)C1` [Compound I-111, (2-chlorophenyl)(4-((cis-4-(3-hydroxy-3-methylazetidin-1-yl)cyclohexyl)amino)-7H-pyrrolo[2,3-d]pyrimidin-5-yl)methanone]: the IC50 stood at 3 nM.

Regarding `CC(C)(C)OC(=O)N[C@H]1CC[C@H](Nc2ncnc3[nH]cc(C(=O)c4ccc(Oc5ccccc5)cc4)c23)C1` [Compound I-184, tert-butyl ((1S,3S)-3-((5-(4-phenoxybenzoyl)-7H-pyrrolo[2,3-d]pyrimidin-4-yl)amino)cyclopentyl)carbamate], the IC50 was determined as 61 nM.

`CC(C)(O)C(=O)N[C@H]1CC[C@@H](Nc2ncnc3[nH]cc(C(=O)c4ccc(Oc5ccccc5)cc4)c23)CC1` [Compound I-203, 2-hydroxy-2-methyl-N-(cis-4-((5-(4-phenoxybenzoyl)-7H-pyrrolo[2,3-d]pyrimidin-4-yl)amino)cyclohexyl)propanamide]: the IC50 stood at 1.4 nM.

The IC50 is the point on the concentration scale where inhibition reaches its midpoint.
